According to ChEMBL document CHEMBL3044672, “N9- and N7-(Chloromethyl Phenymethyl)Chloropurine Derivatives from , '-Dichloroxylenes: Synthesis and Anticancer Activity” (2005):

Key:
Assay type in all cases: functional
RPMI-8226 = assay: Cytotoxicity against Homo sapiens (human) RPMI8226 cells after 48 hr by sulforhodamine B assay; conditions: RPMI-8226, 48 h
SNB-75 = assay: Cytotoxicity against Homo sapiens (human) SNB75 cells after 48 hr by sulforhodamine B assay; conditions: SNB-75, 48 h
SN12C = assay: Cytotoxicity against Homo sapiens (human) SN12C cells after 48 hr by sulforhodamine B assay
PC-3 = assay: Cytotoxicity against Homo sapiens (human) PC3 cells after 48 hr by sulforhodamine B assay; conditions: PC-3, 48 h
SF-268 [1] = assay: Cytotoxicity against Homo sapiens (human) SF268 cells after 48 hr by sulforhodamine B assay; conditions: SF-268, 48 h
K562 = assay: Cytotoxicity against Homo sapiens (human) K562 cells after 48 hr by sulforhodamine B assay; conditions: K562, 48 h
MDA-MB-231 = assay: Cytotoxicity against Homo sapiens (human) MDA-MB-231 cells after 48 hr by sulforhodamine B assay; conditions: MDA-MB-231, 48 h
SNB-19 = assay: Cytotoxicity against Homo sapiens (human) SNB19 cells after 48 hr by sulforhodamine B assay; conditions: SNB-19, 48 h
SF-539 = assay: Cytotoxicity against Homo sapiens (human) SF539 cells after 48 hr by sulforhodamine B assay; conditions: SF-539, 48 h
SK-OV-3 = assay: Cytotoxicity against Homo sapiens (human) SKOV3 cells after 48 hr by sulforhodamine B assay; conditions: SK-OV-3, 48 h
LOX IMVI = assay: Cytotoxicity against Homo sapiens (human) LOXIMVI cells after 48 hr by sulforhodamine B assay
HT-29 = assay: Cytotoxicity against Homo sapiens (human) HT-29 cells after 48 hr by sulforhodamine B assay; conditions: HT-29, 48 h
SF-268 [2] = assay: Cytotoxicity against Homo sapiens (human) SF268 cells assessed as cell growth at 10^-4 M after 48 hr by […] assay; conditions: SF-268, 48 h, read-out: Activity
HOP-62 = assay: Cytotoxicity against Homo sapiens (human) HOP62 cells after 48 hr by sulforhodamine B assay; conditions: HOP-62, 48 h
KM12 = assay: Cytotoxicity against Homo sapiens (human) KM12 cells after 48 hr by sulforhodamine B assay; conditions: KM12, 48 h
UACC-62 = assay: Cytotoxicity against Homo sapiens (human) UACC62 cells after 48 hr by sulforhodamine B assay; conditions: UACC-62, 48 h
OVCAR-4 = assay: Cytotoxicity against Homo sapiens (human) OVCAR4 cells after 48 hr by sulforhodamine B assay; conditions: OVCAR-4, 48 h
RXF 393 = assay: Cytotoxicity against Homo sapiens (human) RXF393 cells after 48 hr by sulforhodamine B assay; conditions: RXF 393, 48 h
COLO 205 = assay: Cytotoxicity against Homo sapiens (human) COLO205 cells after 48 hr by sulforhodamine B assay; conditions: COLO 205, 48 h
NCI-H522 = assay: Cytotoxicity against Homo sapiens (human) NCI-H522 cells after 48 hr by sulforhodamine B assay; conditions: NCI-H522, 48 h
OVCAR-8 = assay: Cytotoxicity against Homo sapiens (human) OVCAR8 cells after 48 hr by sulforhodamine B assay; conditions: OVCAR-8, 48 h
BT-549 = assay: Cytotoxicity against Homo sapiens (human) BT549 cells after 48 hr by sulforhodamine B assay; conditions: BT-549, 48 h
EKVX = assay: Cytotoxicity against Homo sapiens (human) EKVX cells after 48 hr by sulforhodamine B assay
SK-MEL-5 = assay: Cytotoxicity against Homo sapiens (human) SK-MEL-5 cells after 48 hr by sulforhodamine B assay; conditions: SK-MEL-5, 48 h
MCF7 = assay: Cytotoxicity against Homo sapiens (human) MCF7 cells after 48 hr by sulforhodamine B assay; conditions: MCF7, 48 h
NCI-H460 = assay: Cytotoxicity against Homo sapiens (human) NCI-H460 cells assessed as cell growth at 10^-4 M after 48 hr by Alamar blue assay; conditions: NCI-H460, 48 h, read-out: Activity
NCI-H23 = assay: Cytotoxicity against Homo sapiens (human) NCI-H23 cells after 48 hr by sulforhodamine B assay; conditions: NCI-H23, 48 h
[3] = read-out: LC50 (the source's name)

## ClCc1ccc(Cn2cnc3c(Cl)nc(Cl)nc32)cc1
RPMI-8226
  GI50: 1.74 µM
  TGI: 3.8 µM
SNB-75
  GI50: 3.16 µM
  TGI: 9.33 µM
SNB-75; [3]
  CC50: 45.7 µM
SN12C
  GI50: 7.24 µM
  LC50 (50% lethal concentration): 51.3 µM
  TGI: 20.9 µM
PC-3
  GI50: 2.69 µM
  LC50 (concentration causing 50% cell kill): 45.7 µM
  TGI: 7.24 µM
SF-268 [1]
  GI50: 2.51 µM
  TGI: 5.37 µM
SF-268 [1]; [3]
  CC50: 42.7 µM
K562
  GI50: 23.4 µM
  TGI: 66.1 µM
K562; [3]
  CC50: > 100 µM
MDA-MB-231
  GI50: 1.82 µM
  LC50: 7.24 µM
  TGI: 3.63 µM
SNB-19
  GI50: 2.51 µM
  LC50: > 100 µM
  TGI: 7.08 µM
SF-539
  GI50: 17 µM
  LC50 (concentration killing 50% of cells): 56.2 µM
  TGI: 30.9 µM
SK-OV-3
  GI50: 13.5 µM
  LC50: 66.1 µM
  TGI: 29.5 µM
LOX IMVI
  GI50: 2.04 µM
  LC50: 8.32 µM
  TGI: 4.17 µM
HT-29
  GI50: 2.88 µM
  TGI: > 100 µM
HT-29; [3]
  CC50: > 100 µM
SF-268 [2]
  growth at 100 µM: 0%
HOP-62
  GI50: 2.19 µM
  TGI: 5.13 µM
HOP-62; [3]
  CC50: 19.5 µM
KM12
  GI50: 1.82 µM
  TGI: 3.24 µM
KM12; [3]
  CC50: 5.75 µM
UACC-62
  GI50: 2.04 µM
  LC50 (concentration causing 50% net cell kill): 9.33 µM
  TGI: 4.37 µM
OVCAR-4
  GI50: 4.9 µM
  LC50 (concentration killing 50% of cells): 61.7 µM
  TGI: 18.6 µM
RXF 393
  GI50: 20.9 µM
  TGI: 41.7 µM
RXF 393; [3]
  CC50: 83.2 µM
COLO 205
  GI50: 3.47 µM
  TGI: > 100 µM
COLO 205; [3]
  CC50: > 100 µM
NCI-H522
  GI50: 22.4 µM
  TGI: 46.8 µM
NCI-H522; [3]
  CC50: 97.7 µM
OVCAR-8
  GI50: 19.9 µM
  LC50 (concentration killing 50% of cells): 72.4 µM
  TGI: 38 µM
BT-549
  GI50: 15.8 µM
  LC50 (50% lethal concentration): 56.2 µM
  TGI: 29.5 µM
EKVX
  GI50: 17.4 µM
  TGI: 31.6 µM
EKVX; [3]
  CC50: 58.9 µM
SK-MEL-5
  GI50: 6.46 µM
  LC50: 44.7 µM
  TGI: 19.1 µM
MCF7
  GI50: 1.74 µM
  LC50 (concentration killing 50% of cells): > 100 µM
  TGI: 3.98 µM
NCI-H460
  growth at 100 µM: 0%
NCI-H23
  GI50: 7.59 µM
  TGI: 23.4 µM
NCI-H23; [3]
  CC50: 58.9 µM
